Assay results from US6627646B2 (Sepracor Inc., priority 2001, dated 2003).

assay: not given; settings: factor between polymorphs; cited from earlier work

| SMILES | difference in bio-activity between form A and form B |
| --- | --- |
| CCCCCCCCCCCCCCCC(=O)OC[C@@H](NC(=O)C(Cl)Cl)[C@H](O)c1ccc([N+](=O)[O-])cc1 [Chloramphenicol-3-palmitate] | eight |

assay: XRPD (Rietveld) polymorph determination of samples made by literature processes; type: physicochemical; settings: samples generated following referenced literature procedures; validated XRPD method
Description: A Rietveld analysis was developed that allowed quantitative determination of Form B in Form A down to a detection limit at 5%. Upon analysis, it became apparent that the desired polymorph, in any reasonable degree of purity, could not be produced by the known procedures, and indeed, even a specific ratio of polymorphs was not consistently produced by the known procedures. As discussed above, such a situation is highly undesirable from both a medical and a regulatory standpoint.
All prior processes for producing norastemizole free base, described in art known to the applicants, were examined. The samples were generated following the referenced procedures and were tested using the validated XRPD method.

| SMILES | Polymorph Results, % Form B |
| --- | --- |
| Fc1ccc(Cn2c(NC3CCNCC3)nc3ccccc32)cc1 [H1632-6A] | 100% |
| Fc1ccc(Cn2c(NC3CCNCC3)nc3ccccc32)cc1 [H1632-4A] | 91% |
| Fc1ccc(Cn2c(NC3CCNCC3)nc3ccccc32)cc1 [R1632-7A] | 86% |
| Fc1ccc(Cn2c(NC3CCNCC3)nc3ccccc32)cc1 [H1632-30A] | 100% |
| Fc1ccc(Cn2c(NC3CCNCC3)nc3ccccc32)cc1 [H1632-5A] | 90% |
